The conditions of data set [1]: cited from earlier work.
A short description of data set [2]: Solubility of kynurenic acid and its sodium salt. The data set is classed as physicochemical. The following applies: water, converted from 100 mM, read-out: solubility in water, corresponding value.

Values after ≈ are worked out from the molar mass of the structure shown. Structures can show the parent of a compound that is named as a salt. Where two headings read alike, the source gives them in different places.

As usually defined, the solubility is how much of the substance goes into solution per volume.

Regarding `O=C(O)c1cc(=O)c2ccccc2[nH]1` [kynurenic acid], the “solubility in 1.0 M NaOH” value in data set [1] (alkaline conditions, 1.0 M NaOH) was 50 mg/mL (≈ 264 mM). For the same compound, the solubility in water in data set [1] is 0.95 mg/mL.
`O=C(O)c1cc(=O)c2ccccc2[nH]1` [sodium salt]: the solubility in water in data set [1] (sodium salt) is on record as 100 mM. The solubility in data set [2] came out at 21 mg/mL.

The values are drawn from patent US11452309B2, “Formula of preparations for oral and/or enteral feeding of children” (priority 2017, dated 2022).
